Source: patent US7973051B2 (Hoffman-La Roche Inc., priority 2007, dated 2011)

These compounds were tested against T1, human liver FBPase (Homo sapiens, UniProt P09467) (assay: FBPase assay: inorganic phosphate release (malachite green)). Settings: recombinant human liver FBPase, 50 μM fructose-1,6-bisphosphate, read-out at 620 nm.
T1 construct: made in house; host or cells: E. coli
T1 sequence (P09467 2-338 limits assumed): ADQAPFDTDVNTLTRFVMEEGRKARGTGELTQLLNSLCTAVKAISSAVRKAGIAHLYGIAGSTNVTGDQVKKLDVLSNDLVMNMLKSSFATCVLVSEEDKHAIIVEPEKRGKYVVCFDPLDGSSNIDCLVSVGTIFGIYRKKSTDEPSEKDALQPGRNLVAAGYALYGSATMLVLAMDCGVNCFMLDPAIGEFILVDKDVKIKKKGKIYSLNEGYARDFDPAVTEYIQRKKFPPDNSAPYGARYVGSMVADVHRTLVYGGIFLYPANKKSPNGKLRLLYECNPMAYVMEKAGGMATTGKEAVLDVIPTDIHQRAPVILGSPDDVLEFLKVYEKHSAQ
Type: biochemical
Protocol: The following tests were carried out for evaluating the inhibitory activity of the compounds of the present invention against human liver FBPase (Swissprot Data base reference P09467, entry F16P_HUMAN).
Human liver FBPase cDNA (NM_000507) was purchased from Origene Technologies, Inc, subcloned in a vector for expression in E. Coli., and sequenced. Recombinant human liver FBPase (hlFBPase) was purified according to the following protocol that uses heat denaturation similarly to that described by El-Maghrabi et. al. [El-Maghrabi, M. R. et al. “Isolation of a human liver fructose-1,6-bisphosphatase cDNA and expression of the protein in Escherichia coli.” J Biol Chem 268:9466-9472, 1993.]. Briefly, E. coli cells, transiently expressing very high levels of soluble and active human liver FBPase, were suspended in 20 mM Tris-HCl pH 7.5, 1 mM EDTA, 1 mM DTT and were lysed by French press. The soluble extract was heat denatured at 65° C. for 5 min, and insoluble, denatured proteins were removed by centrifugation. The extract was then applied to a BioRad Macro-Prep High Q column equilibrated with 20 mM Tris-HCl pH 7.5, 1 mM EDTA, 1 mM DTT and the flow-through (containing FBPase activity) was collected and applied to a BioRad Macro-Prep HS column equilibrated with 20 mM HEPES pH 7.2, 1 mM DTT. A gradient of increasing NaCl concentration was then applied to the HS column and fractions were collected. Fractions containing active FBPase were pooled and further purified by size exclusion chromatography on a Sephacryl S200 column equilibrated in 20 mM Tris-HCl pH 7.5, 150 mM NaCl, 1 mM EDTA, 1 mM DTT. Purity of the enzyme preparation was >90% as assessed by Mass spectrometry.
Recombinant human liver FBPase (hlFBPase) activity was assayed through measuring the inorganic phosphate release that results from the hydrolysis of Fructose-1,6-bisphosphate by the enzyme. As described by Baykov A. A. et al. in [Baykov A. A et al., “Malachite Green procedure for orthophosphate determination and its use in alkaline phosphatase-based enzyme immunoassays”. Anal. Biochem., 171:266-270, 1988], inorganic phosphate can be readily quantified by spectrophotometry at 620 nm after complexation with ammonium molybdate/malachite green reagent. Enzymatic reaction was carried out with modifications of the procedure described by Wright S. W. et al. [Wright S. W. et al., “Anilinoquinazoline inhibitors of Fructose-1,6-bisphosphatase bind to a novel allosteric site: synthesis, in vitro characterization, and X-ray crystallography”. J. Med. Chem. 45:3865-3877, 2002]. Specifically, the reaction was carried out in 96 well plates in a final volume of 100 μl in the presence or in the absence of allosteric inhibitors. Reaction was started adding 25 ng of hlFBPase to the reaction mixture containing 50 mM HEPES-KOH buffer pH 7.2, 2 mM MgCl2, 2 mM EDTA, 1 mM DTT, 50 μM fructose-1,6-bisphosphate and 1% DMSO. After 50 minutes incubation at room temperature, the phosphate released was allowed to form a colored complex for 10 min by adding 150 μl of ammonium molybdate/malachite green reagent containing 0.03% malachite green, 0.2% ammonium molybdate, 0.05% Triton X-100 and 0.7 M H2SO4 in water that was stirred for 30 min at room temperature and filtered through 0.2 μm filter. Under these conditions, the assay was linear with time and able to detect FBPase inhibition after spectrophotometric read-out at 620 nm.

IC50	SMILES
89 nM	Cc1ccc2sc(S(=O)(=O)NC(=O)Nc3ncc(Br)s3)cc2c1 [Example 1, N-[(5-Bromo-1,3-thiazol-2-yl)carbamoyl]-5-methyl-1-benzothiophene-2-sulfonamide]
434 nM	O=C(Nc1ncc(Br)s1)NS(=O)(=O)c1cc2ccccc2s1 [Example 2, N-[(5-Bromo-1,3-thiazol-2-yl)carbamoyl]-1-benzothiophene-2-sulfonamide]
2730 nM	Cc1c(S(=O)(=O)NC(=O)Nc2ncc(Br)s2)sc2ccc(F)cc12 [Example 3, N-[(5-Bromo-1,3-thiazol-2-yl)carbamoyl]-5-fluoro-3-methyl-1-benzothiophene-2-sulfonamide]
212 nM	O=C(Nc1ncc(Br)s1)NS(=O)(=O)c1csc2ccccc12 [Example 4, N-[(5-Bromo-1,3-thiazol-2-yl)carbamoyl]-1-benzothiophene-3-sulfonamide]
1470 nM	Cc1c(S(=O)(=O)NC(=O)Nc2ncc(Br)s2)sc2ccc(Br)cc12 [Example 5, 5-Bromo-N-[(5-bromo-1,3-thiazol-2-yl)carbamoyl]-3-methyl-1-benzothiophene-2-sulfonamide]
528 nM	O=C(Nc1ncc(Br)s1)NS(=O)(=O)c1cc2c(s1)CCOC2 [Example 6, N-[(5-Bromo-1,3-thiazol-2-yl)carbamoyl]-6,7-dihydro-4H-thieno[3,2-c]pyran-2-sulfonamide]
122 nM	COc1ccc2scc(S(=O)(=O)NC(=O)Nc3ncc(Br)s3)c2c1 [Example 7, N-[(5-Bromo-1,3-thiazol-2-yl)carbamoyl]-5-methoxy-1-benzothiophene-3-sulfonamide]
1100 nM	Cn1c(S(=O)(=O)NC(=O)Nc2ncc(Br)s2)cc2ccccc21 [Example 8, N-[(5-Bromo-1,3-thiazol-2-yl)carbamoyl]-1-methyl-1H-indole-2-sulfonamide]
88 nM	COc1ccc2cc(S(=O)(=O)NC(=O)Nc3ncc(Br)s3)sc2c1 [Example 9, N-[(5-Bromo-1,3-thiazol-2-yl)carbamoyl]-6-methoxy-1-benzothiophene-2-sulfonamide]
446 nM	COC(=O)c1ccc2scc(S(=O)(=O)NC(=O)Nc3ncc(Br)s3)c2c1 [Example 10, Methyl-3-({[(5-bromo-1,3-thiazol-2-yl)carbamoyl]amino}sulfonyl)-1-benzothiophene-5-carboxylate]
624 nM	Cc1ccc2scc(S(=O)(=O)NC(=O)Nc3ncc(Br)s3)c2c1 [Example 11, N-[(5-Bromo-1,3-thiazol-2-yl)carbamoyl]-5-methyl-1-benzothiophene-3-sulfonamide]
370 nM	O=C(Nc1ncc(Br)s1)NS(=O)(=O)c1csc2ccc(Cl)cc12 [Example 12, N-[(5-Bromo-1,3-thiazol-2-yl)carbamoyl]-5-chloro-1-benzothiophene-3-sulfonamide]
111 nM	O=C(Nc1ncc(Br)s1)NS(=O)(=O)c1cc2cc(Cl)ccc2s1 [Example 13, N-[(5-Bromo-1,3-thiazol-2-yl)carbamoyl]-5-chloro-1-benzothiophene-2-sulfonamide]
161 nM	Cc1cccc2cc(S(=O)(=O)NC(=O)Nc3ncc(Br)s3)sc12 [Example 14, N-[(5-Bromo-1,3-thiazol-2-yl)carbamoyl]-7-methyl-1-benzothiophene-2-sulfonamide]
141 nM	COc1ccc2cc(S(=O)(=O)NC(=O)Nc3ncc(Br)s3)sc2c1Br [Example 15, 7-Bromo-N-[(5-bromo-1,3-thiazol-2-yl)carbamoyl]-6-methoxy-1-benzothiophene-2-sulfonamide]
830 nM	Cc1noc(C)c1-c1ccc2sc(S(=O)(=O)NC(=O)Nc3ncc(Br)s3)cc2c1 [Example 16, N-[(5-bromo-1,3-thiazol-2-yl)carbamoyl]-5-(3,5-dimethylisoxazol-4-yl)-1-benzothiophene-2-sulfonamide]
167 nM	COc1ccc2sc(S(=O)(=O)NC(=O)Nc3ncc(Br)s3)cc2c1 [Example 17, N-[(5-Bromo-1,3-thiazol-2-yl)carbamoyl]-5-methoxy-1-benzothiophene-2-sulfonamide]
208 nM	O=C(Nc1ncc(Br)s1)NS(=O)(=O)c1csc2c(Cl)cccc12 [Example 18, N-[(5-Bromo-1,3-thiazol-2-yl)carbamoyl]-7-chloro-1-benzothiophene-3-sulfonamide]
268 nM	O=C(Nc1ncc(Br)s1)NS(=O)(=O)c1cc2cccc(Cl)c2s1 [Example 19, N-[(5-Bromo-1,3-thiazol-2-yl)carbamoyl]-7-chloro-1-benzothiophene-2-sulfonamide]
134 nM	O=C(Nc1ncc(Br)s1)NS(=O)(=O)c1cc2ccccc2[nH]1 [Example 20, N-[(5-Bromo-1,3-thiazol-2-yl)carbamoyl]-1H-indole-2-sulfonamide]
447 nM	Cc1noc(C)c1-c1cccc2cc(S(=O)(=O)NC(=O)Nc3ncc(Br)s3)sc12 [Example 21, N-[(5-Bromo-1,3-thiazol-2-yl)carbamoyl]-7-(3,5-dimethylisoxazol-4-yl)-1-benzothiophene-2-sulfonamide]
440 nM	O=C(Nc1ncc(Br)s1)NS(=O)(=O)c1cc2cccc(-c3ccncc3)c2s1 [Example 22, N-[(5-Bromo-1,3-thiazol-2-yl)carbamoyl]-7-pyridin-4-yl-1-benzothiophene-2-sulfonamide]
385 nM	Cn1cc(S(=O)(=O)NC(=O)Nc2ncc(Br)s2)c2ccccc21 [Example 23, N-[(5-Bromo-1,3-thiazol-2-yl)carbamoyl]-1-methyl-1H-indole-3-sulfonamide]
683 nM	Cn1cc(S(=O)(=O)NC(=O)Nc2ncc(Br)s2)c2cc(OCc3ccccc3)ccc21 [Example 24, 5-(Benzyloxy)-N-[(5-bromo-1,3-thiazol-2-yl)carbamoyl]-1-methyl-1H-indole-3-sulfonamide]
731 nM	COC(=O)c1ccc2c(c1)c(S(=O)(=O)NC(=O)Nc1ncc(Br)s1)cn2C [Example 25, Methyl 3-({[(5-bromo-1,3-thiazol-2-yl)carbamoyl]amino}sulfonyl)-1-methyl-1H-indole-5-carboxylate]
341 nM	Cn1cc(S(=O)(=O)NC(=O)Nc2ncc(Br)s2)c2cc(F)ccc21 [Example 26, N-[(5-Bromo-1,3-thiazol-2-yl)carbamoyl]-5-fluoro-1-methyl-1H-indole-3-sulfonamide]
450 nM	COC(=O)c1ccc2c(S(=O)(=O)NC(=O)Nc3ncc(Br)s3)cn(C)c2c1 [Example 27, Methyl 3-({[(5-bromo-1,3-thiazol-2-yl)carbamoyl]amino}sulfonyl)-1-methyl-1H-indole-6-carboxylate]
363 nM	Cn1cc(S(=O)(=O)NC(=O)Nc2ncc(Br)s2)c2ccc(OCc3ccccc3)cc21 [Example 28, 6-(Benzyloxy)-N-[(5-bromo-1,3-thiazol-2-yl)carbamoyl]-1-methyl-1H-indole-3-sulfonamide]
740 nM	Cn1cc(S(=O)(=O)NC(=O)Nc2ncc(Br)s2)c2ccc(C#N)cc21 [Example 29, N-[(5-Bromo-1,3-thiazol-2-yl)carbamoyl]-6-cyano-1-methyl-1H-indole-3-sulfonamide]
523 nM	Cn1cc(S(=O)(=O)NC(=O)Nc2ncc(Br)s2)c2ccc(S(C)(=O)=O)cc21 [Example 30, N-[(5-Bromo-1,3-thiazol-2-yl)carbamoyl]-1-methyl-6-(methylsulfonyl)-1H-indole-3-sulfonamide]
